In ChEMBL document CHEMBL1123894, “Structure-activity relationships of cyclic opioid peptide analogues containing a phenylalanine residue in the 3-position” (J Med Chem, 1987):
Bridge positions count the residues as written; N and C are the ends. Square brackets hold non-standard residues; d marks the D form. Peptide text beside a SMILES is read from it. Orn = NCCC[C@H](N)C(=O)O

Columns and labels:
[1] = target: Delta-type opioid receptor (Rattus norvegicus, UniProt P33533); assay: Inhibition of [3H]DSLET binding to rat brain membrane Opioid receptor delta 1
Chain of Delta-type opioid receptor (Rattus norvegicus, UniProt P33533) (P33533 whole entry): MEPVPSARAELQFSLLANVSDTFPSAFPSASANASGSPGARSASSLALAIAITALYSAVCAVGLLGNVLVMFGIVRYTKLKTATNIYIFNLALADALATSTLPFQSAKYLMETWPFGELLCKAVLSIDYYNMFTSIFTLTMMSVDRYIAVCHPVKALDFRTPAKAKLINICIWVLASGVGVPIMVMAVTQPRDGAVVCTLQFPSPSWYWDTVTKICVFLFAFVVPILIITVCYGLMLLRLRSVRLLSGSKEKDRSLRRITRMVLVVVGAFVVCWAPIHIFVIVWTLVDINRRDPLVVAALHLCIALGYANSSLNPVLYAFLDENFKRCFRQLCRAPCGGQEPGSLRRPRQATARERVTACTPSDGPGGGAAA

Mu-type opioid receptor [2] = target: T1, Mu-type opioid receptor (Rattus norvegicus, UniProt P33535); assay: Binding affinity towards Opioid receptor mu 1 in rat brain membrane using [3H]DAGO as radioligand; assay type: cell membranes
T1 sequence (P33535 whole entry): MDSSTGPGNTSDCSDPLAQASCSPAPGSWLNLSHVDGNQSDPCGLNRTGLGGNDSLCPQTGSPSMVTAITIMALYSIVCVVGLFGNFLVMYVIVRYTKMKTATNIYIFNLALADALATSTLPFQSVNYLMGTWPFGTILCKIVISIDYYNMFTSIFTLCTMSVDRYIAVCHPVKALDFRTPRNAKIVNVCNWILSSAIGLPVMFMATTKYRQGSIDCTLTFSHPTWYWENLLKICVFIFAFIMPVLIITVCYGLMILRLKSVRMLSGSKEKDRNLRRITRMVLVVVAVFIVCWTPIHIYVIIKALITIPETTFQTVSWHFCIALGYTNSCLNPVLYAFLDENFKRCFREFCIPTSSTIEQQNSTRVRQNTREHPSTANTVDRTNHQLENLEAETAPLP

Mu-type opioid receptor [3] = target: T2, Mu-type opioid receptor (Cavia porcellus, UniProt P97266); assay: Inhibitory activity towards electrically induced contractions in guinea pig ileum expressing Opioid receptor mu 1; assay type: tissue-based
T2 sequence (P97266 whole entry): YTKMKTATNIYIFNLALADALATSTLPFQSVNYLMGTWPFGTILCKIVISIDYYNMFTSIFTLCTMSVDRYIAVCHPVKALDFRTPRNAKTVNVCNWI

[4] = target: Delta-type opioid receptor (Mus musculus, UniProt P32300); assay: Inhibitory activity towards electrically induced contractions in mouse vas deferens expressing delta opioid receptor; assay type: functional, tissue-based
Chain of Delta-type opioid receptor (Mus musculus, UniProt P32300) (P32300 whole entry): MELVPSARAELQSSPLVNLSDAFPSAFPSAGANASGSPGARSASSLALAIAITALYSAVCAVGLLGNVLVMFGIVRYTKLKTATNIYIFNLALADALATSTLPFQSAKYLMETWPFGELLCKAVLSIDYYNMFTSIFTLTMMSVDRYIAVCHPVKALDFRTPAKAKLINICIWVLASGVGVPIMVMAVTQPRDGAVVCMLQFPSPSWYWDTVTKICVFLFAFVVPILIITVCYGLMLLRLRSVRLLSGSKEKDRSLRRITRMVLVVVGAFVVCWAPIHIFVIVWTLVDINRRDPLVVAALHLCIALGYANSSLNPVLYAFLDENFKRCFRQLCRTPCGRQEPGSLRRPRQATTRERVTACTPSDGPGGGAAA

Mu-type opioid receptor [5] = target: T1, Mu-type opioid receptor; assay: Binding affinity towards mu Opioid receptor in rat brain membrane using [3H]DAGO as radioligand; assay type: cell membranes
Mu-type opioid receptor [6] = target: T2, Mu-type opioid receptor; assay: Inhibitory activity towards electrically induced contractions in guinea pig ileum expressing mu opioid receptor; assay type: tissue-based
Mu-type opioid receptor [7] = target: T2, Mu-type opioid receptor; assay: Inhibitory activity towards Opioid receptor mu 1 using guinea pig ileum (GPI) assay was determined for the compound; assay type: tissue-based

SMILES | Ki [1] [µM] | Ki (Mu-type opioid receptor [2]) [µM] | IC50 (Mu-type opioid receptor [3]) [µM] | IC50 [4] [µM] | Ki (Mu-type opioid receptor [5]) [µM] | IC50 (Mu-type opioid receptor [6]) [µM] | IC50 (Mu-type opioid receptor [7]) [µM]
NC(=O)[C@@H]1CC(=O)NCCC[C@@H](NC(=O)[C@@H](N)Cc2ccc(O)cc2)C(=O)N[C@@H](CCc2ccccc2)C(=O)N1 | 0.849 | 0.0119 | 0.111 | 1.37 |  |  | 
NC(=O)[C@@H]1CC(=O)NCCC[C@H](NC(=O)[C@@H](N)Cc2ccc(O)cc2)C(=O)N[C@@H](Cc2ccccc2)C(=O)N1 | > 60 |  | 16.8 | > 100 | 4.83 |  | 
NC(=O)[C@@H]1CC(=O)NCCC[C@@H](NC(=O)[C@@H](N)Cc2ccc(O)cc2)C(=O)N[C@H](Cc2ccccc2)C(=O)N1 | > 380 | 3.04 | > 21 | > 8.64 |  |  | 
NC(=O)[C@@H]1CC(=O)NCCC[C@@H](NC(=O)[C@@H](N)Cc2ccc(O)cc2)C(=O)N[C@@H](Cc2ccccc2)C(=O)N1 | 2.22 | 0.0104 |  | 3.88 |  | 0.0362 | 
NC(=O)[C@@H]1CSSC[C@@H](NC(=O)[C@@H](N)Cc2ccc(O)cc2)C(=O)N[C@@H](Cc2ccccc2)C(=O)N1 | 0.373 | 0.011 |  |  |  |  | 0.0647
NC(=O)[C@@H]1CCNC(=O)C[C@@H](NC(=O)[C@@H](N)Cc2ccc(O)cc2)C(=O)N[C@@H](Cc2ccccc2)C(=O)N1 | 4.17 | 0.0248 | 0.279 | 2.03 |  |  | 
NC(=O)[C@@H]1CC(=O)NCCC[C@@H](NC(=O)[C@@H](N)Cc2ccc(O)cc2)C(=O)N[C@@H](C2CCCCC2)C(=O)N1 | 3.57 |  | 18.4 | 1.66 | 0.445 |  | 
NC(=O)[C@H]1CC(=O)NCCC[C@@H](NC(=O)[C@@H](N)Cc2ccc(O)cc2)C(=O)N[C@@H](Cc2ccccc2)C(=O)N1 | 0.422 | 0.0217 | 0.632 | 4.81 |  |  | 
NC(=O)[C@@H]1CCCNC(=O)C[C@@H](NC(=O)[C@@H](N)Cc2ccc(O)cc2)C(=O)N[C@@H](Cc2ccccc2)C(=O)N1 (H-Y[dD]F[Orn]-NH2; lactam 2-4) | 1.32 | 0.00955 | 0.522 | 8.57 |  |  | 
CN1C(=O)[C@H](NC(=O)[C@@H](N)Cc2ccc(O)cc2)CCCNC(=O)C[C@@H](C(N)=O)NC(=O)[C@@H]1Cc1ccccc1 | 28.1 | 3.57 | 6.46 | 1.38 |  |  | 
NC(=O)[C@@H]1CC(=O)NCCC[C@@H](NC(=O)[C@@H](N)Cc2ccc(O)cc2)C(=O)N[C@@H](Cc2ccc([N+](=O)[O-])cc2)C(=O)N1 | 5.06 | 0.273 | 2.34 | > 100 |  |  | 
